From ChEMBL document CHEMBL4507267 (2021)

Tests used:
[1] = target: Serine/threonine-protein kinase TAO2 (Homo sapiens) (UniProt Q9UL54); settings: Compound concentration 1000.0 nM
[2] = target: Serine/threonine-protein kinase N2 (Homo sapiens) (UniProt Q16513); settings: Compound concentration 1000.0 nM
[3] = target: Mitogen-activated protein kinase kinase kinase 14 (Homo sapiens) (UniProt Q99558); settings: Compound concentration 1000.0 nM
[4] = system: Tyrosine-protein kinase ABL1 (Homo sapiens), P00519 [T315I]; settings: Compound concentration 1000.0 nM
[5] = target: Tyrosine-protein kinase JAK1 (Homo sapiens) (UniProt P23458); settings: Compound concentration 1000.0 nM
Chain of Tyrosine-protein kinase JAK1 (Homo sapiens) (P23458 whole entry): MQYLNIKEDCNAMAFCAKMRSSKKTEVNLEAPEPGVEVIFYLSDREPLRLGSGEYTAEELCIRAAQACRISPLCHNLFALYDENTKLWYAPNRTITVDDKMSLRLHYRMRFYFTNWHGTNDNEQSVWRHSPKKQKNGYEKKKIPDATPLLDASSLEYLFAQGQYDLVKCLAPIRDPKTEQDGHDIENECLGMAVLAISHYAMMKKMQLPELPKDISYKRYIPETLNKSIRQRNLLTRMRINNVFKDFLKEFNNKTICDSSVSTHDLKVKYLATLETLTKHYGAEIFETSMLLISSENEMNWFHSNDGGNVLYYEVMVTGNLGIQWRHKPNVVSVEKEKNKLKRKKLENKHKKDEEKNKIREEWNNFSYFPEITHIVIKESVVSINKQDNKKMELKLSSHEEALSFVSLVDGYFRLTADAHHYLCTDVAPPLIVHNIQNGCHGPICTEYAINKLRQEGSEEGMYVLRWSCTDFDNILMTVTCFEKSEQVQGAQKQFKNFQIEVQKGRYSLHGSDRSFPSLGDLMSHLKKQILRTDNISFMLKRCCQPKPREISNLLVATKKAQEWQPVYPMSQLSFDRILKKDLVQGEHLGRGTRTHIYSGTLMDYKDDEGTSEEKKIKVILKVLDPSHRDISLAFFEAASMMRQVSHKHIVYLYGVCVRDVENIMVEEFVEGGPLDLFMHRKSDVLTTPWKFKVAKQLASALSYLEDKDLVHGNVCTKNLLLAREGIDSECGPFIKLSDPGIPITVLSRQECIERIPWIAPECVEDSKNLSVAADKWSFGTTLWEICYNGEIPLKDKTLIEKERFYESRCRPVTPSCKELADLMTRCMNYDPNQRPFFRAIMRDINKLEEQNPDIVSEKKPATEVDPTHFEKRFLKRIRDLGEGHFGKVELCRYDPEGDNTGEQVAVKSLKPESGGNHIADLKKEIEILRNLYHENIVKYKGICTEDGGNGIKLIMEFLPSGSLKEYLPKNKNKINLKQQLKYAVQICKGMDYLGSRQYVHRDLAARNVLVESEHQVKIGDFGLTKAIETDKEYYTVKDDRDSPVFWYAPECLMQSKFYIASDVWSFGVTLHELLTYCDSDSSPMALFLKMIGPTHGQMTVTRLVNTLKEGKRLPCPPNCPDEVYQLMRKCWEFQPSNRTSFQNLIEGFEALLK

[6] = target: Myosin light chain kinase 2, skeletal/cardiac muscle (Homo sapiens) (UniProt Q9H1R3); settings: Compound concentration 1000.0 nM
[7] = target: Cyclin-dependent kinase 19 (Homo sapiens) (UniProt Q9BWU1); settings: Compound concentration 1000.0 nM
[8] = target: Rho-associated protein kinase 2 (Homo sapiens) (UniProt O75116); settings: Compound concentration 1000.0 nM
[9] = target: Mitogen-activated protein kinase 14 (Homo sapiens) (UniProt Q16539); settings: Compound concentration 1000.0 nM
[10] = target: Aurora kinase B (Homo sapiens) (UniProt Q96GD4); settings: Compound concentration 1000.0 nM
[11] = target: Phosphatidylinositol 5-phosphate 4-kinase type-2 beta (Homo sapiens) (UniProt P78356); settings: Compound concentration 1000.0 nM
[12] = target: Phosphorylase b kinase gamma catalytic chain, skeletal muscle/heart isoform (Homo sapiens) (UniProt Q16816); settings: Compound concentration 1000.0 nM
[13] = target: Eukaryotic translation initiation factor 2-alpha kinase 1 (Homo sapiens) (UniProt Q9BQI3); settings: Compound concentration 1000.0 nM
Chain of Eukaryotic translation initiation factor 2-alpha kinase 1 (Homo sapiens) (Q9BQI3 whole entry): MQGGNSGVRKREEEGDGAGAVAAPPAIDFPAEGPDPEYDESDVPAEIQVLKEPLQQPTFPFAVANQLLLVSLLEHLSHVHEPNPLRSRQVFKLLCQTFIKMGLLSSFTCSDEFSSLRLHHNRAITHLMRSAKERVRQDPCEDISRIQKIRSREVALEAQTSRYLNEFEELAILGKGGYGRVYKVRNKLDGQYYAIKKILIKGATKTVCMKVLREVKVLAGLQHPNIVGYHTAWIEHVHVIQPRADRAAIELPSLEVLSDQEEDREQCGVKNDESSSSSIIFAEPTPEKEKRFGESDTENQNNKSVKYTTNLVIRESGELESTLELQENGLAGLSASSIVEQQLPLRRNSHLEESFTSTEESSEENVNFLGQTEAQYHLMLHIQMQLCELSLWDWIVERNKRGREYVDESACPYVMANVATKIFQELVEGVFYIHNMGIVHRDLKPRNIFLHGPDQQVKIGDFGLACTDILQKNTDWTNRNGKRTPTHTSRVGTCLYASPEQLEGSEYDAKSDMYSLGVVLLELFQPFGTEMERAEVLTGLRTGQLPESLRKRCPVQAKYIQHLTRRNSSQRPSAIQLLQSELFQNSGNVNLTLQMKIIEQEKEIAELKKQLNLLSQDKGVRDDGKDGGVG

[14] = target: Fibroblast growth factor receptor 4 (Homo sapiens) (UniProt P22455); settings: Compound concentration 1000.0 nM
[15] = target: Serine/threonine-protein kinase PAK 2 (Homo sapiens) (UniProt Q13177); settings: Compound concentration 1000.0 nM
[16] = target: Homeodomain-interacting protein kinase 1 (Homo sapiens) (UniProt Q86Z02); settings: Compound concentration 1000.0 nM
[17] = target: Cyclin-dependent kinase 2 (Homo sapiens) (UniProt P24941); settings: Compound concentration 1000.0 nM
[18] = target: BDNF/NT-3 growth factors receptor (Homo sapiens) (UniProt Q16620); settings: Compound concentration 1000.0 nM
Chain of BDNF/NT-3 growth factors receptor (Homo sapiens) (Q16620 32-822 limits assumed): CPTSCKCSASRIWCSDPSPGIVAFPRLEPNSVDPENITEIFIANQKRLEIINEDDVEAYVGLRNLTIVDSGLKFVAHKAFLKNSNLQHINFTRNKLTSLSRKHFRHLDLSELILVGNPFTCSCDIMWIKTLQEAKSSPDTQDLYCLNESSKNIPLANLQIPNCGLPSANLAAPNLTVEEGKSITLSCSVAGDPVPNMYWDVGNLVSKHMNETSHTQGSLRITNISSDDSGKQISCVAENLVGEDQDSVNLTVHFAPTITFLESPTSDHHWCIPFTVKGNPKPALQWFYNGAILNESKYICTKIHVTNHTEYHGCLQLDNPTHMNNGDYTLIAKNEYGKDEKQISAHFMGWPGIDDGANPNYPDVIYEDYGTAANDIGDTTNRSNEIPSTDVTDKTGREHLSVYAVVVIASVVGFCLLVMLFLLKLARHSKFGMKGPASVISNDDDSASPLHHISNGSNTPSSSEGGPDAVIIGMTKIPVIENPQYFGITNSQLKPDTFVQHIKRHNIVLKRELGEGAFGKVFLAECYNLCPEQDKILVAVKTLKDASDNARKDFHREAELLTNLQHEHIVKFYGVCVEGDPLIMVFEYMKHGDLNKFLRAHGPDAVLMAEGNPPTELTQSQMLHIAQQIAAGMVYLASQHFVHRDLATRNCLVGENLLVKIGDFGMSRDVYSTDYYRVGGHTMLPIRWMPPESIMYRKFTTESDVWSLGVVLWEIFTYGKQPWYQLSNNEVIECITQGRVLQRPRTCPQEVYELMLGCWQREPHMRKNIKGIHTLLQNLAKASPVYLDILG

[19] = target: Insulin-like growth factor 1 receptor (Homo sapiens) (UniProt P08069); settings: Compound concentration 1000.0 nM
[20] = target: Interferon-induced, double-stranded RNA-activated protein kinase (Homo sapiens) (UniProt P19525); settings: Compound concentration 1000.0 nM
[21] = target: Serine/threonine-protein kinase SIK1 (Homo sapiens) (UniProt P57059); settings: Compound concentration 1000.0 nM
[22] = target: Serine/threonine-protein kinase 35 (Homo sapiens) (UniProt Q8TDR2); settings: Compound concentration 1000.0 nM
[23] = target: Serine/threonine-protein kinase Sgk2 (Homo sapiens) (UniProt Q9HBY8); settings: Compound concentration 1000.0 nM
[24] = target: Mitogen-activated protein kinase kinase kinase kinase 1 (Homo sapiens) (UniProt Q92918); settings: Compound concentration 1000.0 nM
[25] = target: Tyrosine-protein kinase Tec (Homo sapiens) (UniProt P42680); settings: Compound concentration 1000.0 nM
[26] = target: Serine/threonine-protein kinase TAO3 (Homo sapiens) (UniProt Q9H2K8); settings: Compound concentration 1000.0 nM
[27] = target: Serine/threonine-protein kinase BRSK2 (Homo sapiens) (UniProt Q8IWQ3); settings: Compound concentration 1000.0 nM
[28] = target: Serine/threonine-protein kinase ICK (Homo sapiens) (UniProt Q9UPZ9); settings: Compound concentration 1000.0 nM
[29] = target: MAP kinase-activated protein kinase 2 (Homo sapiens) (UniProt P49137); settings: Compound concentration 1000.0 nM
Chain of MAP kinase-activated protein kinase 2 (Homo sapiens) (P49137 whole entry, looked up): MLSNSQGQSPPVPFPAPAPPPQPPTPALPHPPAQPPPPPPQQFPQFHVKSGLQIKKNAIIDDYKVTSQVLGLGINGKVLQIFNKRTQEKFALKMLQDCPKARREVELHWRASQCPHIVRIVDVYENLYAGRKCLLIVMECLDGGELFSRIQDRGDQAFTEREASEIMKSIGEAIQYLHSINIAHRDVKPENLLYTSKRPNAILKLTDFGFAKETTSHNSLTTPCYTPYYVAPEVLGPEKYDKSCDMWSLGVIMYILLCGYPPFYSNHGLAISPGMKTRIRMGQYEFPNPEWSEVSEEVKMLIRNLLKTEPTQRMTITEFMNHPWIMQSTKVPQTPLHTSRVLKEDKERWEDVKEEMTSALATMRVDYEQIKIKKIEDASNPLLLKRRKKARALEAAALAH

[30] = target: Tyrosine-protein kinase ITK/TSK (Homo sapiens) (UniProt Q08881); settings: Compound concentration 1000.0 nM
[31] = target: Tyrosine-protein kinase Fer (Homo sapiens) (UniProt P16591); settings: Compound concentration 1000.0 nM
Chain of Tyrosine-protein kinase Fer (Homo sapiens) (P16591 whole entry, looked up): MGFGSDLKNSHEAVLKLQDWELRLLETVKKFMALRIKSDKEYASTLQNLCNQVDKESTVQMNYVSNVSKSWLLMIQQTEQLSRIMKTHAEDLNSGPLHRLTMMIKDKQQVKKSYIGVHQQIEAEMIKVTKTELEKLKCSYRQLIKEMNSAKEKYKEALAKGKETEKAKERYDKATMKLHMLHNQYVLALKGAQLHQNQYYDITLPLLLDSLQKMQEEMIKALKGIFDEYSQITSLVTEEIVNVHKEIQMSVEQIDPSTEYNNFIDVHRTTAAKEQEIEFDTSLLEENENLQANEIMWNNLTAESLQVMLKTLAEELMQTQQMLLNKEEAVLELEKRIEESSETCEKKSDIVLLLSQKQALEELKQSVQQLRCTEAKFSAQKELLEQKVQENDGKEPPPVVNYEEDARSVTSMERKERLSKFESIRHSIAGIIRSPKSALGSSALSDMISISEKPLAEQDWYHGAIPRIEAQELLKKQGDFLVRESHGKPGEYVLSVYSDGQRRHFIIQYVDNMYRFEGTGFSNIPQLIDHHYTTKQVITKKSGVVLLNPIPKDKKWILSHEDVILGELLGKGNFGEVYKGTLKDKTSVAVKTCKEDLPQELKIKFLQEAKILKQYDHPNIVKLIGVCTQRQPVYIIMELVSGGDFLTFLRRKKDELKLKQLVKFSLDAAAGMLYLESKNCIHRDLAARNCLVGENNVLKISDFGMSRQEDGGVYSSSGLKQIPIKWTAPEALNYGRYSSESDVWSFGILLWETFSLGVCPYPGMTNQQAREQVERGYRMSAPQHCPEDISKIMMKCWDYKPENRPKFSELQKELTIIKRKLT

[32] = target: 5-hydroxytryptamine receptor 3A (Homo sapiens) (UniProt P46098); settings: Compound concentration 10.0 uM
[33] = target: D(2) dopamine receptor (Homo sapiens) (UniProt P14416); settings: Compound concentration 10.0 uM
[34] = target: Ephrin type-A receptor 2 (Homo sapiens) (UniProt P29317); settings: Compound concentration 1000.0 nM
[35] = target: STE20-like serine/threonine-protein kinase (Homo sapiens) (UniProt Q9H2G2); settings: Compound concentration 1000.0 nM
Chain of STE20-like serine/threonine-protein kinase (Homo sapiens) (Q9H2G2 whole entry, looked up): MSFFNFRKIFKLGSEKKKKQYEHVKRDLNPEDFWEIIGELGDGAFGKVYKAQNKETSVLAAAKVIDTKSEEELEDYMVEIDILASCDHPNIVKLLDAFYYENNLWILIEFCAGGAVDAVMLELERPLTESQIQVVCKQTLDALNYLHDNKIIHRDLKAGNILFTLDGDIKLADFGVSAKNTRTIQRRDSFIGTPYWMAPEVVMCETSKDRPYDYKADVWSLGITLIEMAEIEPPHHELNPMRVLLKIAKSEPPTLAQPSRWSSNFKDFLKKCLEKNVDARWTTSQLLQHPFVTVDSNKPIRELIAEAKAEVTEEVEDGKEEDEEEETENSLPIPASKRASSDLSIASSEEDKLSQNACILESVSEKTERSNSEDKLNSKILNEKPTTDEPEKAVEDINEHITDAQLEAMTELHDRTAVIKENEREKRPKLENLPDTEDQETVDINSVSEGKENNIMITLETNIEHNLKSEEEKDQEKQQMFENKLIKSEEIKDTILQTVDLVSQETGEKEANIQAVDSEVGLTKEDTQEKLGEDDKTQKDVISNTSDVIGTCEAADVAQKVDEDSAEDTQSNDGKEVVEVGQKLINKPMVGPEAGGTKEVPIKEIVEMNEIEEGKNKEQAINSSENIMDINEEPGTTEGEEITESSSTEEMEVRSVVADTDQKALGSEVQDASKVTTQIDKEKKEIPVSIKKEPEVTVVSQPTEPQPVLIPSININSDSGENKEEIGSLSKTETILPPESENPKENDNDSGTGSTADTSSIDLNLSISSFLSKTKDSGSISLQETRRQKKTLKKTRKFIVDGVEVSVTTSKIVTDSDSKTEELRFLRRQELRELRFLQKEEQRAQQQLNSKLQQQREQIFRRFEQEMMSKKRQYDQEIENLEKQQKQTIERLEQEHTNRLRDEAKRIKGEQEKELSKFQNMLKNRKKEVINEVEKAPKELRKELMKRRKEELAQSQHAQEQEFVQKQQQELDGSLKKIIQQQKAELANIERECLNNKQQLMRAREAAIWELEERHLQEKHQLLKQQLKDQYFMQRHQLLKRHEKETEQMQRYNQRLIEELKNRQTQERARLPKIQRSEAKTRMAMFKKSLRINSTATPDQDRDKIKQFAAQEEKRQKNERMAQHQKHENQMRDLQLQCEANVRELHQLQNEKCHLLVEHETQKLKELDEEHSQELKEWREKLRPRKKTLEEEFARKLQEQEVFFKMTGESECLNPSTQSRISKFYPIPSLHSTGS

[36] = target: Tyrosine-protein kinase Fyn (Homo sapiens) (UniProt P06241); settings: Compound concentration 1000.0 nM
[37] = target: TGF-beta receptor type-2 (Homo sapiens) (UniProt P37173); settings: Compound concentration 1000.0 nM
[38] = target: Aurora kinase C (Homo sapiens) (UniProt Q9UQB9); settings: Compound concentration 1000.0 nM
[39] = target: Cyclin-dependent kinase 4 (Homo sapiens) (UniProt P11802); settings: Compound concentration 1000.0 nM
[40] = target: Phosphorylase b kinase regulatory subunit alpha, liver isoform (Homo sapiens) (UniProt P46019); settings: Compound concentration 1000.0 nM
[41] = target: Serine/threonine-protein kinase PAK 3 (Homo sapiens) (UniProt O75914); settings: Compound concentration 1000.0 nM
[42] = target: Tyrosine-protein kinase Blk (Homo sapiens) (UniProt P51451); settings: Compound concentration 1000.0 nM
[43] = target: Mitogen-activated protein kinase kinase kinase 11 (Homo sapiens) (UniProt Q16584); settings: Compound concentration 1000.0 nM
[44] = target: Mast/stem cell growth factor receptor Kit (Homo sapiens) (UniProt P10721); settings: Compound concentration 1000.0 nM
[45] = target: Serine/threonine-protein kinase SBK1 (Homo sapiens) (UniProt Q52WX2); settings: Compound concentration 1000.0 nM

Cc1c(NC(=O)c2cc(C(N)=O)nc3cc(F)ccc23)c(C(F)(F)F)nn1Cc1ccc(C(C)(C)C)cc1 [BAY-588]
inactive: residual activity [1] 100% | residual activity [2] 100% | residual activity [3] 100% | residual activity [4] 85% | residual activity [5] 100% | residual activity [6] 87% | residual activity [7] 100% | residual activity [8] 100% | residual activity [9] 100% | residual activity [10] 100% | residual activity [11] 91% | residual activity [12] 100% | residual activity [13] 100% | residual activity [14] 100% | residual activity [15] 85% | residual activity [16] 92% | residual activity [17] 88% | residual activity [18] 100% | residual activity [19] 100% | residual activity [20] 100% | residual activity [21] 87% | residual activity [22] 100% | residual activity [23] 100% | residual activity [24] 100% | residual activity [25] 94% | residual activity [27] 100% | residual activity [28] 61% | residual activity [29] 100% | residual activity [30] 95% | residual activity [31] 100% | inhibition [32] 7.59% | inhibition [33] 18% | residual activity [34] 97% | residual activity [35] 100% | residual activity [36] 100% | residual activity [37] 100% | residual activity [38] 100% | residual activity [39] 100% | residual activity [40] 83% | residual activity [41] 100% | residual activity [42] 72% | residual activity [43] 100% | residual activity [44] 99% | residual activity [45] 100%
active: residual activity [26] 45%

Cc1c(NC(=O)c2cc(C(N)=O)nc3cc(F)ccc23)c(C(F)(F)F)nn1Cc1ccc(C#N)cc1 [BAY-876]
inactive: residual activity [1] 85% | residual activity [2] 81% | residual activity [3] 72% | residual activity [4] 92% | residual activity [5] 100% | residual activity [6] 90% | residual activity [7] 82% | residual activity [8] 99% | residual activity [9] 91% | residual activity [10] 72% | residual activity [11] 88% | residual activity [12] 100% | residual activity [13] 100% | residual activity [14] 100% | residual activity [15] 88% | residual activity [16] 73% | residual activity [17] 91% | residual activity [18] 54% | residual activity [19] 100% | residual activity [20] 100% | residual activity [21] 100% | residual activity [22] 85% | residual activity [23] 80% | residual activity [24] 100% | residual activity [25] 85% | residual activity [26] 79% | residual activity [27] 100% | residual activity [28] 100% | residual activity [29] 97% | residual activity [30] 78% | residual activity [31] 99% | inhibition [32] -7.03% | inhibition [33] 8.73% | residual activity [34] 81% | residual activity [35] 100% | residual activity [36] 94% | residual activity [37] 100% | residual activity [38] 90% | residual activity [39] 100% | residual activity [40] 94% | residual activity [41] 76% | residual activity [42] 77% | residual activity [43] 100% | residual activity [44] 95% | residual activity [45] 75%
